Key:
Settings in all cases: incubation time: 72 h
BT-474 [1] = experiment: drug sensitivity score (DSS), CellTiter-Glo (DSS (AUC-based score)); higher = stronger drug effect (viability inhibition or cytotoxicity); extreme values may be limits of the assay
Outline: (§1)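 After 72 h of incubation in 384-well plates with compound at 5 concentrations (10-fold steps, 10,000-fold range set per compound), breast cancer cell lines seeded in 20 µl suspension were read first for CellTox Green fluorescence at 485/520 nm. CellTiter-Glo luminescence was measured next, after 10 min at room temperature. Normalisation on each plate used 0.1 % DMSO and a positive kill control, and the drug sensitivity score was computed from the area under the fitted dose-response curve.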

BT-549 [2] = experiment: as above
Outline: as §1

HCC1599 [3] = experiment: as above
Outline: as §1

MCF-10A [4] = experiment: as above
Outline: as §1

SK-BR-3 = experiment: as above
Outline: as §1

BT-474 [5] = experiment: drug sensitivity score (DSS), CellTox Green (DSS (AUC-based score)); higher = stronger drug effect (viability inhibition or cytotoxicity); extreme values may be limits of the assay
Outline: as §1

BT-549 [6] = experiment: as above
Outline: as §1

CAL-120 = experiment: as above
Outline: as §1

CAL-148 = experiment: as above
Outline: as §1

CAL-51 = experiment: as above
Outline: as §1

CAL-85-1 = experiment: as above
Outline: as §1

DU-4475 = experiment: as above
Outline: as §1

HCC1143 = experiment: as above
Outline: as §1

HCC1599 [7] = experiment: as above
Outline: as §1

HCC1937 = experiment: as above
Outline: as §1

HDQ-P1 = experiment: as above
Outline: as §1

Hs578T = experiment: as above
Outline: as §1

MCF-10A [8] = experiment: as above
Outline: as §1

MDA-MB-231 = experiment: as above
Outline: as §1

MDA-MB-436 = experiment: as above
Outline: as §1

MDA-MB-453 = experiment: as above
Outline: as §1

MFM-223 = experiment: as above
Outline: as §1

Measured: drug sensitivity score

CC(=O)Nc1ccc(C(=O)Nc2ccccc2N)cc1 [Tacedinaline]
0: all assays above

From the supplement of paper PMC4862054
